# Results taken from PubChem BioAssay (NCI).
#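 Following 48 hours of exposure in 96-well plates, responses at five concentrations were used to interpolate endpoints linearly. Definition used: TGI = concentration required for complete inhibition of growth.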 Where a SMILES comes first, the peptide text is derived from it. [ ]: non-standard residue; d: D form. The star is where a group is joined. mTyr = N[CH](Cc1cccc(O)c1)C(=O)O; Cbz = O=C(OCc1ccccc1)*; OBn = c1ccc(CO*)cc1
# Assays:
# Assay in all cases: NCI tumour cell line growth inhibition, 48 h
# [1] = system: 786-0 renal
# [2] = system: A549 NSCLC
# [3] = system: EKVX NSCLC
# [4] = system: HCT-15 colon
# [5] = system: HOP-62 NSCLC
# [6] = system: HOP-92 NSCLC
# [7] = system: MDA-MB-231 breast
# [8] = system: MDA-MB-435
# [9] = system: RPMI-8226 leukemia
# [10] = system: SNB-19 CNS
Structure (SMILES),TGI [1] [µM],TGI [2] [µM],TGI [3] [µM],TGI [4] [µM],TGI [5] [µM],TGI [6] [µM],TGI [7] [µM],TGI [8] [µM],TGI [9] [µM],TGI [10] [µM]
Brc1ccc(-c2cn3ccncc3n2)cc1,> 100,> 100,> 100,> 100,> 100,> 100,> 100,> 100,> 100,> 100
CC(C)C1=CC23CCC4C(C)(C(=O)O)CCCC4(C)C2CC1C1C(=O)N(c2ccc(C(=O)O)cc2)C(=O)C13 (configuration not stated),> 100,> 100,> 100,> 100,> 100,> 100,> 100,> 100,> 100,> 100
COc1ccc(C(=O)c2[nH]c(Nc3ccc(Cl)cc3)c(C(=S)Nc3ccccc3)c2N)cc1,> 100,> 100,> 100,> 100,> 100,> 100,> 100,> 100,,> 100
CCN(c1cccc(NC(=S)Nc2ccccc2N(CC)c2cc(-c3ccccc3)no2)c1)c1cc(-c2ccccc2)no1,> 100,> 100,> 100,> 100,> 100,> 100,> 100,> 100,> 100,> 100
Cc1ccc(CC(C)N)cc1 (configuration not stated),> 100,> 100,> 100,> 100,> 100,> 100,,,> 100,> 100
FC(F)(F)c1ccc2nc(Sc3ccccn3)cnc2c1,62.1,> 100,> 100,> 100,> 100,> 100,> 100,> 100,,86.8
COc1ccc(/C=C2\CN(C)C/C(=C\c3ccc(OC)c(OC)c3OC)C2=O)c(OC)c1OC,0.806,1.07,4.37,,0.84,1.73,0.488,0.0541,0.211,1.2
COc1nc(N)c(N=CC(OC(C)=O)C(OC(C)=O)C(COC(C)=O)OC(C)=O)c(=O)n1C (configuration not stated),> 100,> 100,> 100,> 100,> 100,> 100,> 100,> 100,> 100,> 100
CC(C)(C)c1cc(C2COC(c3cc(C(C)(C)C)c(O)c(C(C)(C)C)c3)CO2)cc(C(C)(C)C)c1O (configuration not stated),> 100,> 100,> 100,> 100,> 100,> 100,> 100,> 100,> 100,> 100
O=C(Nc1cccc(F)c1)c1cc2ccc(O)cc2oc1=Nc1ccccc1F,17.1,13.8,6.17,13.8,24.6,,,14.2,> 100,21
CC(C)CN=C(N)N=C(N)N,> 100,> 100,> 100,> 100,> 100,> 100,> 100,> 100,> 100,> 100
COc1cc(C(c2ccc3c(c2)OCO3)N2C(=O)CCC2C(=O)O)cc(OC)c1OC (configuration not stated),> 100,> 100,> 100,> 100,> 100,> 100,> 100,> 100,> 100,> 100
CCOC(=O)[C@H](Cc1ccc(O)cc1)N=C1[C@H]2CCC[C@]1(O)[C@@](C)([N+](=O)[O-])C2,> 100,> 100,> 100,> 100,,> 100,,> 100,> 100,> 100
N#C/C(=C\c1c[nH]c2ccccc12)C(=O)c1ccc(O)c(O)c1,> 62,98.7,> 100,> 100,> 61.5,99.2,,> 100,> 31.6,98.1
C=CCOC(=O)C1C2OC3(C(C(=O)OC)=C2C(=O)OC)c2ccccc2CCC13 (configuration not stated),> 10,> 10,> 10,> 10,> 10,,> 10,> 10,> 10,> 10
COc1ccc2c(c1)CCN1CCc3cc(OC)c(OC)cc3CC21 (configuration not stated),> 100,> 100,> 10,> 100,,> 100,> 100,> 100,> 100,> 100
Cc1nc(-c2ccc(N=Cc3ccc(N(CCOS(C)(=O)=O)CCOS(C)(=O)=O)cc3C)cc2)cs1,47.5,> 100,,> 100,> 100,,> 100,> 100,> 100,> 100
COC(=O)C(Cc1cccc(O)c1)NC(=O)C(CC(=O)OCc1ccccc1)NC(=O)OCc1ccccc1 (configuration not stated) (Cbz-Asp(OBn)-[mTyr]-OMe; configuration not given here),> 100,> 100,> 100,> 100,> 100,> 100,> 100,,> 100,> 100
C[C@H]1C=C2[C@@H]3CC(C)(C(=O)O)CC[C@]3(C)CC[C@]2(C)[C@]2(C)CC[C@H]3C(C)(C)[C@@H](OC(=O)c4cccc5c(=O)c6ccccc6[nH]c45)CC[C@]3(C)[C@@H]12 (some centres not stated),> 100,> 100,> 100,> 100,> 100,> 100,> 100,> 100,> 100,> 100
CN(C)CCCN1c2ccccc2CCc2ccc([N+](=O)[O-])cc21,> 100,> 100,> 100,57.7,62.9,,> 100,36,> 100,> 100
CNc1ccc(N)cc1C(=O)N1CCC[C@H]1CO,> 100,> 100,> 100,> 100,> 100,,> 100,> 100,,> 100
